Data from patent publication US11033538B2, “Dosing regimens for the treatment of lysosomal storage diseases using pharmacological chaperones” (Amicus Therapeutics, Inc., priority 2007, dated 2021).
Where two headings read alike, the source gives them in different places.

Key:
GL-3 = assay: Example 11, GL-3 levels by LC-MS/MS in hR301Q GLA Tg/KO mice, daily vs less frequent dosing; format: in vivo; details: 300 mg/kg in drinking water, 4 weeks; skin, heart, kidney, plasma
Experimental: Lysates were prepared from skin, heart, kidney and plasma. GL-3 levels were measured by LC-MS/MS (expressed in mg/g tissue weight or mg/mL plasma). […] Each bar represents the mean±SEM of 10-16 mice/group.

α-GAL = format: in vivo, human
Experimental: Four male patients received a single 150 mg Q.O.D for 12 weeks (Group B); while five male patients received 150 mg Q.O.D. for 24 weeks (Group C). Finally nine female patients were randomized to receive one of three dosages: 50, 150 or 250 mg Q.O.D for 12 weeks (Group D) (FIG. 8).
Enzymatic activity of α-Gal in leukocytes (white blood cells; WBCs) of the patients was measured as a percentage of the average α-Gal activity in white blood cells of 15 healthy volunteers. α-GAL activity was assessed in fractionated tissue obtained from biopsies, and in blood leukocytes and plasma (from blood collected at baseline and every month).

healthy male volunteers = tested on: healthy male volunteers
Experimental: Safety was determined by evaluating vital signs, laboratory parameters (serum chemistry, hematology, and urinalysis), ECGs, physical examination and by recording adverse events during the Treatment Period.
Adverse events were coded using the MedDRA version 7.0 dictionary and summarized by treatment for the number of subjects reporting the adverse event and the number of adverse events reported. A by-subject adverse event data listing including verbatim term, coded term, treatment group, severity, and relationship to treatment was provided. Concomitant medications and medical history were listed by treatment.

In the case of OC[C@H]1NC[C@H](O)[C@@H](O)[C@H]1O [DGJ, (2R,3S,4R,5S)-2-(hydroxymethyl) piperdine-3,4,5-triol], the “GL-3 levels by LC-MS/MS, less frequent (4 days on/3 days off) vs daily dosing” value (GL-3) is reported as “greater reduction in GL-3 levels”, the “mean increase in WBC α-Gal activity” value (α-GAL; eleven good responders, male, pre vs post treatment) is reported as 630% and the “mean increase in leukocyte α-Gal activity” value (α-GAL; four moderate responders, male) is reported as 170%. The “number of good responders (α-Gal activity)” value (α-GAL; male patients, Groups A-C) was “eleven”, the “number of moderate responders (α-Gal activity)” value (α-GAL; male patients, Groups A-C) was “four” and the “number of non responders (α-Gal activity)” value (α-GAL; male patients, Groups A-C) was “two”. For the same molecule, the “mean increase in WBC α-Gal activity compared to baseline” value (α-GAL; nine female patients, Group D (50, 150 or 250 mg Q.O.D, 12 weeks)) was 146%, the “leukocyte or kidney α-Gal activity” value (α-GAL; non responders, male) was “None of the “non” responders exhibited any overall increase” and the “mean increase in kidney α-Gal activity” value (α-GAL; one moderate responder, male) was 100%. For the same molecule, the “mean increase in kidney α-Gal activity” value (α-GAL; six of the good responders, male) was 1090%, the safety and tolerability (healthy male volunteers; 50 mg b.i.d. and 150 mg b.i.d., 7 days) was “safe and well tolerated” and the “adverse events (AEs)” value (healthy male volunteers; 50 mg b.i.d. or 150 mg b.i.d.) was “no subject presented with AEs”. For the same molecule, the tolerability (healthy male volunteers; 50 and 150 mg twice daily for 7 days) was “generally well-tolerated at all doses”, the “vital sign, ECG, physical examination” value (healthy male volunteers; 50 or 150 mg b.i.d.) was “No clinically relevant abnormality occurred in any vital sign, ECG, or physical examination parameter” and the serious adverse events (healthy male volunteers; any treatment group) was “no serious adverse events”.
